The text below walks through data of patent USRE42890E1, “Furazanobenzimidazoles” (Basilea Pharmaceutica AG, priority 2003, dated 2011).

For assay [1], the system named is Jily. In words: MTS proliferation assay, Jily. It is filed as cell-based. The following applies: 72 h incubation, read-out: MTS proliferation assay IC 50 Jily. The method, then:
(§1) Cell lines are cultured in RPMI-1640 tissue culture medium containing either 5% or 10% fetal calf serum, 0.05 mM 2-mercaptoethanol, 2 mM glutamine and penicillin/streptomycin 50 μg/ml (complete medium) (Sigma, Buchs, Switzerland). General growth conditions are 37° C. and 7.5% CO2.
(§2) The assay is performed in 96 well tissue culture plates. The cells (range: 1.5*10^3-10^4) are seeded out in 80 μl complete medium 24 h prior to compound treatment. The test compounds are added in 20 μl complete medium containing max 5% DMSO. The final compound concentrations in the assays are 10 μM, 3 μM, 1 μM and 0.3 μM, respectively. The assay plates are incubated for 72 h at culture conditions. The MTS reagent is prepared according to the manufacturer's protocol (Promega G1111). 20 μl MTS reagent are added to each well, the assay plates are quickly spun and incubated for another 3 h at culture conditions. Subsequently, the plates are shortly shaked and absorption measured with a microplate-reader at 492 nm.
In general terms: Tetrazolium assays rely on reduction of a dye to a coloured formazan, in cell work by metabolically active cells.

Assay [2] has as its system HeLa. In words: MTS proliferation assay, HeLa. It is filed as cell-based, human. The following applies: 72 h incubation, read-out: MTS proliferation assay IC 50 HeLa. In a few lines: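 A 72 h exposure to compound (final 0.3–10 μM, four levels) was followed by 3 h MTS incubation and an A492 read.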
The subject of assay [3] is adherent cells or suspension cells. In words: Hoechst 33342 nuclear staining (fraction of apoptotic nuclei). It is filed as cell-based. The arrangement: key: 0 relating to no activity; 1 relating to weak activity comprising less than 70% of the cells; score 2 relating to strong activity comprising more than 70% of the cells.
The subject of assay [4] is HT1080. The assay is described as follows: MTS proliferation assay, HT1080. It is filed as cell-based, human. The following applies: HT1080, 72 h incubation; read-out: MTS proliferation assay IC 50 HT1080. The method, then:
as §1
The following human cell lines (either EGFP transfected or not) are being used: HeLa (ATCC: CCL-2), KB (ATCC: CCL-17), MCF7 (ATCC: HTB-22), SK-BR-3 (ATCC: HTB-30), SK-Mel 1 (ATCC: HTB-67), SK-Mel 28 (ATCC: HTB-72), PC-3 (ATCC: CRL-1435), SW 480 (ATCC: CCL-228), NCl-H460 (ATCC: HTB-177), NCl-H1792 (ATCC: CRL-5895), HT1080 (ATCC: CCL-21), Jurkat (ATCC: TIB-152), Ramos (ATCC: CRL-1596), Raji (ATCC: CCL-86), H9 (ATCC: HTB-176), Hut78 (ATCC: TIB-161), K562 (ATCC: CCL 243), HL-60 (ATCC: CCL 240), U-87MG (ATCC: HTB-14), HepG2 (ATCC: HB-8065), U-2 OS (ATCC: HTB-96), Saos-2 (ATCC: HTB-85), U937 (ATCC: CRL 1593), Hs 578T (ATCC: HTB 126), HBL-100 (ATCC: HTB 124), Molt-4 (ATCC: CRL 1582).
as §2

The test system of assay [5] is MRC5. The assay is described as follows: MTS proliferation assay, MRC5. The following applies: MRC5, 72 h incubation; read-out: MTS proliferation assay IC 50 MRC5. It is filed as cell-based. In a few lines: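 Proliferation is followed by MTS conversion, measured as absorbance at 492 nm. Cells are exposed for 72 h to four fixed compound concentrations (10 μM down to 0.3 μM) under 37° C, 7.5% CO2 culture conditions.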

As for `Cc1ccc(C(=O)Cn2c(-c3nonc3NCCCO)nc3ccccc32)cc1C` [Example 52], the IC50 in assay [1] and in assay [2] was 10 to 100 nM in each case. In addition, the “Hoechst 33342 nuclear staining score” value is given as 0 in assay [3] (H460, conc 0.01 μm); 1 (1 relating to weak activity comprising less than 70% of the cells) in assay [3] (H460, conc 0.1 μm); 2 (score 2 relating to strong activity comprising more than 70% of the cells) in assay [3] (H460, conc 1 μm); 0 in assay [3] (HeLa, conc 0.01 μm); 2 (score 2 relating to strong activity comprising more than 70% of the cells) in assay [3] (HeLa, conc 0.1 μm); 2 (score 2 relating to strong activity comprising more than 70% of the cells) in assay [3] (HeLa, conc 1 μm). Further, the “Hoechst 33342 nuclear staining score” value is listed as 0 in assay [3] (Jily, conc 0.01 μm); 2 (score 2 relating to strong activity comprising more than 70% of the cells) in assay [3] (Jily, conc 0.1 μm); 2 (score 2 relating to strong activity comprising more than 70% of the cells) in assay [3] (Jily, conc 1 μm); 0 in assay [3] (Jurkat, conc 0.01 μm); 2 (score 2 relating to strong activity comprising more than 70% of the cells) in assay [3] (Jurkat, conc 0.1 μm); 2 (score 2 relating to strong activity comprising more than 70% of the cells) in assay [3] (Jurkat, conc 1 μm). In addition, the “Hoechst 33342 nuclear staining score” value in assay [3] (MRC5, conc 0.01 μm) is given as 0; in assay [3] (MRC5, conc 0.1 μm), 2 (score 2 relating to strong activity comprising more than 70% of the cells); in assay [3] (MRC5, conc 1 μm), 2 (score 2 relating to strong activity comprising more than 70% of the cells); in assay [3] (PBLs, conc 0.01 μm), 0; in assay [3] (PBLs, conc 0.1 μm), 0; in assay [3] (PBLs, conc 1 μm) it was 0.

Turning to `Cc1ccc(C(=O)Cn2c(-c3nonc3N)nc3ccccc32)cc1C` [Example 53], the IC50 in assay [1] and in assay [2] was 10 to 100 nM each time. For the same compound, the “Hoechst 33342 nuclear staining score” value was 0 in assay [3] (H460, conc 0.01 μm); 2 (score 2 relating to strong activity comprising more than 70% of the cells) in assay [3] (H460, conc 0.1 μm); 2 (score 2 relating to strong activity comprising more than 70% of the cells) in assay [3] (H460, conc 1 μm); 0 in assay [3] (HeLa, conc 0.01 μm); 2 (score 2 relating to strong activity comprising more than 70% of the cells) in assay [3] (HeLa, conc 0.1 μm); 2 (score 2 relating to strong activity comprising more than 70% of the cells) in assay [3] (HeLa, conc 1 μm). Besides, the “Hoechst 33342 nuclear staining score” value is 0 in assay [3] (Jily, conc 0.01 μm); 2 (score 2 relating to strong activity comprising more than 70% of the cells) in assay [3] (Jily, conc 0.1 μm); 2 (score 2 relating to strong activity comprising more than 70% of the cells) in assay [3] (Jily, conc 1 μm); 2 (score 2 relating to strong activity comprising more than 70% of the cells) in assay [3] (Jurkat, conc 0.01 μm); 2 (score 2 relating to strong activity comprising more than 70% of the cells) in assay [3] (Jurkat, conc 0.1 μm); 2 (score 2 relating to strong activity comprising more than 70% of the cells) in assay [3] (Jurkat, conc 1 μm). For the same compound, the “Hoechst 33342 nuclear staining score” value in assay [3] (MRC5, conc 0.01 μm) was 1 (1 relating to weak activity comprising less than 70% of the cells); in assay [3] (MRC5, conc 0.1 μm), 2 (score 2 relating to strong activity comprising more than 70% of the cells); in assay [3] (MRC5, conc 1 μm) it was 2 (score 2 relating to strong activity comprising more than 70% of the cells); in assay [3] (PBLs, conc 0.01 μm), 0; in assay [3] (PBLs, conc 0.1 μm) it was 0; in assay [3] (PBLs, conc 1 μm), 0.

In the case of `Cc1ccc(C(=O)Cn2c(-c3nonc3NCCC#N)nc3ccccc32)cc1C` [Example 54], the IC50 in assay [1], in assay [4], in assay [2] and in assay [5] was 10 to 100 nM throughout. The “Hoechst 33342 nuclear staining score” value is 0 in assay [3] (H460, conc 0.01 μm); 2 (score 2 relating to strong activity comprising more than 70% of the cells) in assay [3] (H460, conc 0.1 μm); 2 (score 2 relating to strong activity comprising more than 70% of the cells) in assay [3] (H460, conc 1 μm); 0 in assay [3] (HeLa, conc 0.01 μm); 2 (score 2 relating to strong activity comprising more than 70% of the cells) in assay [3] (HeLa, conc 0.1 μm); 2 (score 2 relating to strong activity comprising more than 70% of the cells) in assay [3] (HeLa, conc 1 μm). The “Hoechst 33342 nuclear staining score” value in assay [3] (Jily, conc 0.01 μm) is reported as 1 (1 relating to weak activity comprising less than 70% of the cells); in assay [3] (Jily, conc 0.1 μm), 2 (score 2 relating to strong activity comprising more than 70% of the cells); in assay [3] (Jily, conc 1 μm), 2 (score 2 relating to strong activity comprising more than 70% of the cells); in assay [3] (Jurkat, conc 0.01 μm) it was 1 (1 relating to weak activity comprising less than 70% of the cells); in assay [3] (Jurkat, conc 0.1 μm), 2 (score 2 relating to strong activity comprising more than 70% of the cells); in assay [3] (Jurkat, conc 1 μm) it was 2 (score 2 relating to strong activity comprising more than 70% of the cells). In addition, the “Hoechst 33342 nuclear staining score” value in assay [3] (MRC5, conc 0.01 μm) is 0; in assay [3] (MRC5, conc 0.1 μm), 2 (score 2 relating to strong activity comprising more than 70% of the cells); in assay [3] (MRC5, conc 1 μm), 2 (score 2 relating to strong activity comprising more than 70% of the cells); in assay [3] (PBLs, conc 0.01 μm) it was 0; in assay [3] (PBLs, conc 0.1 μm) it was 0; in assay [3] (PBLs, conc 1 μm) it was 0.

In the case of `CCc1ccc(C(=O)Cn2c(-c3nonc3N)nc3ccccc32)cc1` [Example 55], the IC50 lay within 10 to 100 nM in assay [1], 100 to 1000 nM in assay [4], 100 to 1000 nM in assay [2] and 100 to 1000 nM in assay [5]. In addition, the “Hoechst 33342 nuclear staining score” value in assay [3] (H460, conc 0.01 μm) is recorded as 0; in assay [3] (H460, conc 0.1 μm), 0; in assay [3] (H460, conc 1 μm), 2 (score 2 relating to strong activity comprising more than 70% of the cells); in assay [3] (HeLa, conc 0.01 μm), 0; in assay [3] (HeLa, conc 0.1 μm) it was 0; in assay [3] (HeLa, conc 1 μm), 2 (score 2 relating to strong activity comprising more than 70% of the cells). Moreover, the “Hoechst 33342 nuclear staining score” value in assay [3] (Jily, conc 0.01 μm) is given as 0; in assay [3] (Jily, conc 0.1 μm) it was 0; in assay [3] (Jily, conc 1 μm), 2 (score 2 relating to strong activity comprising more than 70% of the cells); in assay [3] (Jurkat, conc 0.01 μm), 0; in assay [3] (Jurkat, conc 0.1 μm), 1 (1 relating to weak activity comprising less than 70% of the cells); in assay [3] (Jurkat, conc 1 μm), 2 (score 2 relating to strong activity comprising more than 70% of the cells). In addition, the “Hoechst 33342 nuclear staining score” value in assay [3] (MRC5, conc 0.01 μm) stood at 0; in assay [3] (MRC5, conc 0.1 μm), 0; in assay [3] (MRC5, conc 1 μm) it was 0; in assay [3] (PBLs, conc 0.01 μm), 0; in assay [3] (PBLs, conc 0.1 μm), 0; in assay [3] (PBLs, conc 1 μm) it was 0.
